Consider 22 compounds from US5169863A, “Hypersphyxia-causing methods” (K.K. Ueno Seiyaku Oyo Kenkyujo, priority 1988, dated 1992).

A short description of assay [1]: progressing a breath (change rate of breath rate). As to conditions: Rattus norvegicus, iv, tail vein, rats. It is filed as in vivo, Wister male rats. As for the experimental part:
Wister male rats (8 weeks old) were applied to anesthesia by intraperitoneal administration with 1.25 g/kg of urethane. A pick-up for breath was fixed on a top of a rat's nose, and the breath curve was recorded on a polygraph while the breath rate was counted with a tachometer.
Each test compound was dissolved in ethanol and administered to rats through a tale vein in 1 mg/kg as diluted with Ringer's solution just before use. The maximum concentration of ethanol was 2 percent. Ringers solution containing ethanol but not containing test compound was administered at every experiment as a control. The change rates (%) of the breath rate before and after administration were determined, and evaluated as progressing activity of breath.

The nature of assay [2]: changing rate of blood pressure and heart rate by intravenous injection in anesthetized rats. Conditions: for change in vivo at 1 mg/kg: Rattus norvegicus; for blood pressure effect (in words): Example 1 conclusion. Format: in vivo, Wister male rats. The procedure:
(blood pressure, heart rate increasing action by intravenous injection) Wister male rats (8 weeks old) were used as test animals. The rats were applied to anesthesia by intraperitoneal administration with 1.25 g/kg of urethane. The blood pressure was determined by inserting a polyethylene tube into a femoral artery, which was connected with a pressure transducer. The heart rate was determined from R wave of electrocardiograms (ECG) induced by standard limb lead II with a tachometer. Each test compound was dissolved in ethanol and intravenously administered to rats in 1 mg/kg diluted with Ringer's solution just before use. The maximum concentration of ethanol was 2 percent. An ethanol-containing Ringer without any test compound was used as a control to confirm the influence of the ethanol in each experiment. Each changing rate (%) in the blood pressure and heart rate before and after administration was determined, and the average of 3-4 experiments was shown in Table 1. Changing rates of blood pressure and heart rate were determined in the same manner as described in Example 1 except that the test compounds 60, 61 and 62 were used in different concentrations instead of the test compounds 1-55.

Where [3] appears, read: Table 1, read-out: changing rate of blood pressure.
[4] abbreviates: Table 1, read-out: changing rate of heart rate.

Consider `COCCCCCC(=O)CC[C@H]1[C@H](O)CC(=O)[C@@H]1C/C=C\CCCC(=O)OC` [Compound 45, 13,14-dihydro-15-keto-20-methoxy-PGE2 methyl ester], for which the change in vivo at 1 mg/kg in assay [1] was 10%; in assay [2] (setting [3]), 2%; in assay [2] (setting [4]) it was 4%.
The matching figures for `COC(=O)CCC/C=C\C[C@H]1C(=O)C[C@@H](O)[C@@H]1CCC(=O)CCCC(C)C` [Compound 43, 13,14-dihydro-15-keto-19-methyl-PGE2 methyl ester]: 41%, 14% and 45%.
For the compound `CCCCCC(=O)CC[C@H]1[C@H](O)CC(=O)[C@@H]1C/C=C\CCCC(=O)O` [Compound 20, 13,14-dihydro-15-keto-PGE2, reference compound], the change in vivo at 1 mg/kg is 12% in assay [1], -15% in assay [2] (setting [3]) and 0% in assay [2] (setting [4]). In addition, the “blood pressure effect (in words)” value in assay [2] is “blood pressure decreasing effect”.
For the compound `CCCCCC(=O)CC[C@H]1[C@H](O)CC(=O)[C@@H]1C/C=C\CCCC(=O)OCCC` [Compound 23, 13,14-dihydro-15-keto-PGE2 n-propyl ester], the change in vivo at 1 mg/kg in assay [1] turned out to be 37%; in assay [2] (setting [3]), 5%; in assay [2] (setting [4]), 4%.
The matching figures for `CCCCCC(=O)CC[C@H]1[C@H](O)CC(=O)[C@@H]1C/C=C\CCCC(=O)OCCCC` [Compound 24, 13,14-dihydro-15-keto-PGE2 n-butyl ester]: 41%, 5% and 5%.
The matching figures for `CCCCC(C)C(=O)CC[C@H]1[C@H](O)CC(=O)[C@@H]1C/C=C\CC(C)CC(=O)OC` (some centres unmarked) [Compound 32, 13,14-dihydro-15-keto-3R,S-16R,S-dimethyl-PGE2 methyl ester]: 41%, 14% and 30%.
Take `CCCCCC(=O)CC[C@H]1[C@H](O)CC(=O)[C@@H]1CC(=O)CCCCC(=O)OCC` (relative stereo) [Compound 8, (±) 13,14-dihydro-6,15-diketo-PGE1 ethyl ester]: the change in vivo at 1 mg/kg turned out to be 65% in assay [1] and 8% in assay [2] (setting [3]).
With `CCCCCC(=O)CC[C@H]1[C@H](O)CC(=O)[C@@H]1C/C=C\CC(C)CC(=O)OCC` (some centres unmarked) [Compound 29, 13,14-dihydro-15-keto-3R,S-methyl-PGE2 ethyl ester], the change in vivo at 1 mg/kg in assay [1] is 11%; in assay [2] (setting [3]), 7%; in assay [2] (setting [4]), 17%.
On the same counts, the results for `CCCCC(C)(C)C(=O)CC[C@H]1[C@H](O)CC(=O)[C@@H]1C/C=C\CCCC(=O)OC` [Compound 33, 13,14-dihydro-15-keto-16,16-dimethyl-PGE2 methyl ester] are 40%, 20% and 28%.
For `CCCCC[C@H](O)/C=C/[C@H]1[C@H](O)CC(=O)[C@@H]1C/C=C\CCCC(=O)O` [Compound 57, PGE2, reference compound], the results for the change in vivo at 1 mg/kg in assay [1], in assay [2] (setting [3]) and in assay [2] (setting [4]) were 55%, -39% and 14%, respectively. In addition, the “blood pressure effect (in words)” value in assay [2] is “blood pressure decreasing effect”.
Turning to `CCCCCC(=O)CC[C@H]1[C@H](O)CC(=O)[C@@H]1C/C=C\CC(C)CC(=O)OC` (some centres unmarked) [Compound 28, 13,14-dihydro-15-keto-3R,S-methyl-PGE2 methyl ester], the change in vivo at 1 mg/kg in assay [1] was 40%; in assay [2] (setting [3]), 12%; in assay [2] (setting [4]) it was 33%.
The matching figures for `CCCCCC(=O)CC[C@H]1[C@H](O)CC(=O)[C@@H]1C/C=C\CCCC(=O)OCc1ccccc1` [Compound 25, 13,14-dihydro-15-keto-PGE2 benzyl ester]: 22%, 2% and 5%.
The matching figures for `CCCCC(C)C(=O)CC[C@H]1[C@H](O)CC(=O)[C@@H]1CC(=O)CCCCC(=O)OC` (some centres unmarked) [Compound 10, 13,14-dihydro-6,15-diketo-16R,S-methyl-PGE1 methyl ester]: 63%, 22% and 37%.
As for `CCCCC(C)(C)C(=O)CC[C@H]1[C@H](O)CC(=O)[C@@H]1CC(=O)CCCCC(=O)OCC` [Compound 12, 13,14-dihydro-6,15-diketo-16,16-dimethyl-PGE1 ethyl ester], the change in vivo at 1 mg/kg in assay [1] was found to be 44%; in assay [2] (setting [3]), 17%; in assay [2] (setting [4]) it was 38%.
On to `CCCCCC(=O)CC[C@H]1[C@H](O)CC(=O)[C@@H]1CC(=O)CCCCC(=O)OCCCC` [Compound 9, 13,14-dihydro-6,15-diketo-PGE1 n-butyl ester], for which the change in vivo at 1 mg/kg was 26% in assay [1], 2% in assay [2] (setting [3]) and 26% in assay [2] (setting [4]).
With `CCC[C@H](C)CC(=O)CC[C@H]1[C@H](O)CC(=O)[C@@H]1C/C=C\CCCC(=O)OC` [Compound 42, 13,14-dihydro-15-keto-17S-methyl-PGE2 methyl ester], the values for the change in vivo at 1 mg/kg in assay [1], in assay [2] (setting [3]) and in assay [2] (setting [4]) were 28%, 12% and 7%, respectively.
On the same counts, the results for `CCCCCC(=O)CC[C@H]1[C@H](C)CC(=O)[C@@H]1C/C=C\CCCC(=O)OCC` [Compound 41, 13,14-dihydro-15-keto-11-dehydroxy-11R-methylPGE2 ethyl ester] are 20%, 11% and 26%.
For `CCCCC[C@H](O)/C=C/[C@H]1[C@H](O)CC(=O)[C@@H]1C/C=C\CCCC(=O)OC` [Compound 58, PGE2 methyl ester, reference compound], the figures for the change in vivo at 1 mg/kg in assay [1], in assay [2] (setting [3]) and in assay [2] (setting [4]) were 35%, -11% and 33%, respectively. Moreover, in assay [2], the “blood pressure effect (in words)” value is reported as “blood pressure decreasing effect”.
Regarding `CCOC(=O)CCC/C=C\C[C@H]1C(=O)C[C@@H](O)[C@@H]1CCC(=O)CCCC(C)C` [Compound 44, 13,14-dihydro-15-keto-19-methyl-PGE2 ethyl ester], the change in vivo at 1 mg/kg in assay [1] worked out at 16%; in assay [2] (setting [3]) it was 20%; in assay [2] (setting [4]), 30%.
On the same counts, the results for `CCCCC(F)C(=O)CC[C@H]1[C@H](O)CC(=O)[C@@H]1C/C=C\CCCC(=O)OCC` (some centres unmarked) [Compound 38, 13,14-dihydro-15-keto-16R,S-fluoro-PGE2 ethyl ester] are 47%, 14% and 15%.
Take `CCCCC(F)C(=O)CC[C@H]1[C@H](O)CC(=O)[C@@H]1CC(=O)CCCCC(=O)OCC` (some centres unmarked) [Compound 13, 13,14-dihydro-6,15-diketo-16R,S-fluoro-PGE1 ethyl ester]: the change in vivo at 1 mg/kg in assay [1] stood at 53%; in assay [2] (setting [3]), 11%; in assay [2] (setting [4]), 20%.
The matching figures for `COC(=O)CCC/C=C\C[C@H]1C(=O)C[C@@H](O)[C@@H]1CCC(=O)CCCCC=C(C)C` [Compound 50, 13,14-dihydro-15-keto-20-isopropylidene-PGE2 methyl ester]: 18%, 2% and 5%.
